Assay results from patent US20260285850A1, “SUBSTITUTED OXAZOLIDINONES AND IMIDAZOLINONES AS HERBICIDES” (FMC CORPORATION, priority 2023, published 2026).

Experiments:
Format in all cases: in vivo
[1] = test system: barnyardgrass (Echinochloa crus-galli); experiment: Test A preemergence soil spray, visual injury rating 0-100; conditions: 10 days
Summary of the method: (§1)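 Grow plants in loam soil blended with sand. Apply formulated compound (non-phytotoxic solvent, surfactant) as a directed soil spray before emergence, or to plants at the one- to two-leaf stage after emergence. Hold in greenhouse 10 days, then rate injury visually versus untreated controls on a 0-100 scale.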

[2] = test system: blackgrass (Alopecurus myosuroides); experiment: as above; conditions: 10 days
Summary of the method: as §1

corn (Zea mays) [3] = experiment: as above; conditions: 10 days
Summary of the method: as §1

[4] = test system: green foxtail (Setaria viridis); experiment: as above; conditions: 10 days
Summary of the method: as §1

kochia (Bassia scoparia) [5] = experiment: as above; conditions: 10 days
Summary of the method: as §1

[6] = test system: oat, wild (wild oat, Avena fatua); experiment: as above; conditions: 10 days
Summary of the method: as §1

[7] = test system: palmer (palmer amaranth, palmer pigweed, Amaranthus palmeri); experiment: as above; conditions: 10 days
Summary of the method: as §1

[8] = test system: ragweed (common ragweed, Ambrosia artemisiifolia); experiment: as above; conditions: 10 days
Summary of the method: as §1

[9] = test system: ryegrass, Italian (italian ryegrass, Lolium multiflorum); experiment: as above; conditions: 10 days
Summary of the method: as §1

soybean (Glycine max) [10] = experiment: as above; conditions: 10 days
Summary of the method: as §1

[11] = test system: wheat (Triticum aestivum); experiment: as above; conditions: 10 days
Summary of the method: as §1

[12] = test system: barnyardgrass (Echinochloa crus-galli); experiment: Test A postemergence application, visual injury rating 0-100
Summary of the method: as §1

[13] = test system: blackgrass (Alopecurus myosuroides); experiment: as above
Summary of the method: as §1

corn (Zea mays) [14] = experiment: as above
Summary of the method: as §1

[15] = test system: galium (catchweed bedstraw, Galium aparine); experiment: as above
Summary of the method: as §1

[16] = test system: green foxtail (Setaria viridis); experiment: as above
Summary of the method: as §1

kochia (Bassia scoparia) [17] = experiment: as above
Summary of the method: as §1

[18] = test system: oat, wild (wild oat, Avena fatua); experiment: as above
Summary of the method: as §1

[19] = test system: palmer (palmer amaranth, palmer pigweed, Amaranthus palmeri); experiment: as above
Summary of the method: as §1

[20] = test system: ragweed (common ragweed, Ambrosia artemisiifolia); experiment: as above
Summary of the method: as §1

[21] = test system: ryegrass, Italian (italian ryegrass, Lolium multiflorum); experiment: as above
Summary of the method: as §1

soybean (Glycine max) [22] = experiment: as above
Summary of the method: as §1

[23] = test system: wheat (Triticum aestivum); experiment: as above
Summary of the method: as §1

[24] = test system: barnyardgrass (Echinochloa crusgalli); experiment: Test B flooded paddy test, visual plant response rating 0-100; conditions: 250 g ai/ha, Flood, applied to paddy water, evaluated after 13 days
Summary of the method: (§2)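 In this flooded assay, 2-leaf seedlings received compound through the water layer, kept at 3 cm over the soil. Plants were held 13 days in a greenhouse and then visually compared with control pots.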

[25] = test system: ducksalad (Heteranthera limosa); experiment: as above; conditions: 250 g ai/ha, Flood, applied to paddy water, evaluated after 13 days
Summary of the method: as §2

rice (Oryza sativa) = experiment: as above; conditions: 250 g ai/ha, Flood, applied to paddy water, evaluated after 13 days
Summary of the method: as §2

[26] = test system: sedge, umbrella (small-flower umbrella sedge, Cyperus difformis); experiment: as above; conditions: 250 g ai/ha, Flood, applied to paddy water, evaluated after 13 days
Summary of the method: as §2

[27] = 62 g ai/ha, 0 = no effect, 100 = complete control
[28] = 62 g ai/ha, postemergence, 10 days, 0 = no effect, 100 = complete control
[29] = Postemergence, 16 g ai/ha, greenhouse 10 days, 0 no effect, 100 complete control

C=CC1(C(=O)NC2CC=C(C(=O)OC)C2)CN(c2cc(F)cc(F)c2)C(=O)O1 (racemic) [Compound 169]
Barnyardgrass plant response rating ([1]; 16 g ai/ha, 0 to 100 scale): 10 | Barnyardgrass plant response rating (0-100) [1, 27]: 90 | Blackgrass plant response rating ([2]; 16 g ai/ha, 0 to 100 scale): 0 | Blackgrass plant response rating (0-100) [2, 27]: 30 | Corn plant response rating (corn (Zea mays) [3]; 16 g ai/ha, 0 to 100 scale): 0 | Corn plant response rating (0-100) (corn (Zea mays) [3]; [27]): 60 | Foxtail, Green plant response rating ([4]; 16 g ai/ha, 0 to 100 scale): 0 | Foxtail, Green plant response rating (0-100) [4, 27]: 90 | Kochia plant response rating (kochia (Bassia scoparia) [5]; 16 g ai/ha, 0 to 100 scale): 0 | Kochia plant response rating (0-100) (kochia (Bassia scoparia) [5]; [27]): 40 | Oat, Wild plant response rating ([6]; 16 g ai/ha, 0 to 100 scale): 20 | Oat, Wild plant response rating (0-100) [6, 27]: 50 | Pigweed, Palmer plant response rating ([7]; 16 g ai/ha, 0 to 100 scale): 0 | Pigweed, Palmer plant response rating (0-100) [7, 27]: 50 | Ragweed plant response rating ([8]; 16 g ai/ha, 0 to 100 scale): 0 | Ragweed plant response rating (0-100) [8, 27]: 10 | Ryegrass, Italian plant response rating ([9]; 16 g ai/ha, 0 to 100 scale): 90 | Ryegrass, Italian plant response rating (0-100) [9, 27]: 90 | Soybean plant response rating (soybean (Glycine max) [10]; 16 g ai/ha, 0 to 100 scale): 10 | Soybean plant response rating (0-100) (soybean (Glycine max) [10]; [27]): 20 | Wheat plant response rating ([11]; 16 g ai/ha, 0 to 100 scale): 80 | Wheat plant response rating (0-100) [11, 27]: 90 | Barnyardgrass plant response rating (0-100) [12, 28]: 100 | Barnyardgrass plant response rating (0 to 100 scale) [12, 29]: 100 | Blackgrass plant response rating (0-100) [13, 28]: 100 | Blackgrass plant response rating (0 to 100 scale) [13, 29]: 100 | Corn plant response rating (0-100) (corn (Zea mays) [14]; [28]): 100 | Corn plant response rating (0 to 100 scale) (corn (Zea mays) [14]; [29]): 100 | Galium plant response rating (0-100) [15, 28]: 80 | Galium plant response rating (0 to 100 scale) [15, 29]: 70 | Foxtail, Green plant response rating (0-100) [16, 28]: 90 | Foxtail, Green plant response rating (0 to 100 scale) [16, 29]: 90 | Kochia plant response rating (0-100) (kochia (Bassia scoparia) [17]; [28]): 80 | Kochia plant response rating (0 to 100 scale) (kochia (Bassia scoparia) [17]; [29]): 80 | Oat, Wild plant response rating (0-100) [18, 28]: 90 | Oat, Wild plant response rating (0 to 100 scale) [18, 29]: 90 | Pigweed, Palmer plant response rating (0-100) [19, 28]: 70 | Pigweed, Palmer plant response rating (0 to 100 scale) [19, 29]: 20 | Ragweed plant response rating (0-100) [20, 28]: 70 | Ragweed plant response rating (0 to 100 scale) [20, 29]: 0 | Ryegrass, Italian plant response rating (0-100) [21, 28]: 90 | Ryegrass, Italian plant response rating (0 to 100 scale) [21, 29]: 80 | Soybean plant response rating (0-100) (soybean (Glycine max) [22]; [28]): 70 | Soybean plant response rating (0 to 100 scale) (soybean (Glycine max) [22]; [29]): 60 | Wheat plant response rating (0-100) [23, 28]: 90 | Wheat plant response rating (0 to 100 scale) [23, 29]: 90 | Plant response rating, Barnyardgrass (0 to 100 scale, 0 is no effect and 100 is complete control) [24]: 90 | Plant response rating, Ducksalad (0 to 100 scale, 0 is no effect and 100 is complete control) [25]: 100 | Plant response rating, Rice (0 to 100 scale, 0 is no effect and 100 is complete control) (rice (Oryza sativa)): 95 | Plant response rating, Sedge, Umbrella (0 to 100 scale, 0 is no effect and 100 is complete control) [26]: 100
